What was measured:
MST1 = molecular target: T1, MST1 (Homo sapiens, UniProt Q13043); experiment: KinomeScan; assay type: binding; settings: read-out: % Control
T1 construct: purchased DiscoveRx

XCR1 = molecular target: T2, XCR1 (Homo sapiens, UniProt P46094); experiment: GPCR Profiler; assay type: cell-based
T2 construct: host or cells: Chem-1 cells expressing Galpha15

INSRR = molecular target: T3, INSRR (Homo sapiens, UniProt P14616); experiment: KinomeScan; assay type: binding; settings: read-out: % Control
T3 construct: purchased DiscoveRx (Fremont, CA)

HPK1 = molecular target: T4, HPK1 (Homo sapiens, UniProt Q92918); experiment: KinomeScan; assay type: binding; settings: read-out: % Control
T4 construct: purchased DiscoveRx (Fremont, CA)

CDK3 = molecular target: T5, CDK3 (Homo sapiens, UniProt Q00526); experiment: KinomeScan; assay type: binding; settings: read-out: % Control
T5 construct: purchased DiscoveRx (KinomeScan service)

PIK3CD = molecular target: T6, PIK3CD (Homo sapiens, UniProt O00329); experiment: KinomeScan; assay type: binding; settings: read-out: % Control
T6 construct: purchased DiscoveRx (Fremont, CA)

ERK1 = molecular target: T7, ERK1 (Homo sapiens, UniProt P27361); experiment: KinomeScan; assay type: binding; settings: read-out: % Control
T7 construct: purchased DiscoveRx (Fremont, CA)
T7 sequence (P27361 whole entry): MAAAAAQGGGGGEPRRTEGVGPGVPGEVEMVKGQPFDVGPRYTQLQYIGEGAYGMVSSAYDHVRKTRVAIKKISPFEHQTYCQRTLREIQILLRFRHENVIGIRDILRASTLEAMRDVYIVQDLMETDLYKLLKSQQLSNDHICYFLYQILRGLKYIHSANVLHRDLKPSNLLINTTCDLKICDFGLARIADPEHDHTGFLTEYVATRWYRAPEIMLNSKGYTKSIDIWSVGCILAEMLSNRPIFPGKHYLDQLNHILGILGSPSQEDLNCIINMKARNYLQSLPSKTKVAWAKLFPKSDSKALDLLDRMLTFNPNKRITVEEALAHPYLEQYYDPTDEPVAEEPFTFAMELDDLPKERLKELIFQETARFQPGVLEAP

ZAK = molecular target: T8, ZAK (Homo sapiens, UniProt Q9NYL2); experiment: KinomeScan; assay type: binding; settings: read-out: % Control
T8 construct: purchased DiscoveRx
T8 sequence (Q9NYL2 whole entry): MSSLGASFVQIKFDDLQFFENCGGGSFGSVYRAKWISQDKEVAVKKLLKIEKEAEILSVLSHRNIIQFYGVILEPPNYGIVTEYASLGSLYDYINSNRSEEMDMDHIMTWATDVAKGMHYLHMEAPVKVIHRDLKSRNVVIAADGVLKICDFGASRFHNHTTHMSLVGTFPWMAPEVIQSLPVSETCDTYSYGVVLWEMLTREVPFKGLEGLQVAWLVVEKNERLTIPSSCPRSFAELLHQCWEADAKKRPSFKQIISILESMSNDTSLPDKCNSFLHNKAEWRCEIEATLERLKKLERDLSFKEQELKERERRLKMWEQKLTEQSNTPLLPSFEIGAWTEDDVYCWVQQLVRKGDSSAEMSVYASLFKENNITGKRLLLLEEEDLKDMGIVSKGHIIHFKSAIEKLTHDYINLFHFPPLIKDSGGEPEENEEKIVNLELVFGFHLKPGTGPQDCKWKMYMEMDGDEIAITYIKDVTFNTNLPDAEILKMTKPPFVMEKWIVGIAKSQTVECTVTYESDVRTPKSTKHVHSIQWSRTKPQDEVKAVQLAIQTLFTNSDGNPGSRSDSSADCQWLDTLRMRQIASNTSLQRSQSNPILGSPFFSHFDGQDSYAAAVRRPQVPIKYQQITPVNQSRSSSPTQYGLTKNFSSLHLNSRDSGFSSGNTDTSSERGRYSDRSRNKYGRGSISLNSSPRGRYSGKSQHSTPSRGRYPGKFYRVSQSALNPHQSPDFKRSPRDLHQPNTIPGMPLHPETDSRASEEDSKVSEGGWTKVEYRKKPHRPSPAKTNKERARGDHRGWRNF

PIK3CA(H1047L) = molecular target: T9, PIK3CA(H1047L) (Homo sapiens, UniProt P42336, H1047L); experiment: KinomeScan; assay type: binding; settings: read-out: % Control
T9 construct: purchased DiscoveRx (Fremont, CA)

FAK = molecular target: T10, FAK (Homo sapiens, UniProt Q05397); experiment: KinomeScan; assay type: binding; settings: read-out: % Control
T10 construct: purchased DiscoveRx (Fremont, CA)

ROCK2 = molecular target: T11, ROCK2 (Homo sapiens, UniProt O75116); experiment: KinomeScan; assay type: binding; settings: read-out: % Control
T11 construct: purchased DiscoveRx (Fremont, CA)

EGFR(G719C) = molecular target: T12, EGFR(G719C) (Homo sapiens, UniProt P00533, G719C); experiment: KinomeScan; assay type: binding; settings: read-out: % Control
T12 construct: purchased DiscoveRx (Fremont, CA), KinomeScan service

PHKG1 = molecular target: T13, PHKG1 (Homo sapiens, UniProt Q16816); experiment: KinomeScan; assay type: binding; settings: read-out: % Control
T13 construct: purchased DiscoveRx (Fremont, CA)

MLCK = molecular target: T14, MLCK (Homo sapiens, UniProt Q32MK0); experiment: KinomeScan; assay type: binding; settings: read-out: % Control
T14 construct: purchased DiscoveRx

M3 = molecular target: T15, M3 (Homo sapiens, UniProt P20309); experiment: GPCR Profiler; assay type: cell-based
T15 construct: host or cells: Chem-1 cells with promiscuous Gα15
T15 sequence (P20309 whole entry): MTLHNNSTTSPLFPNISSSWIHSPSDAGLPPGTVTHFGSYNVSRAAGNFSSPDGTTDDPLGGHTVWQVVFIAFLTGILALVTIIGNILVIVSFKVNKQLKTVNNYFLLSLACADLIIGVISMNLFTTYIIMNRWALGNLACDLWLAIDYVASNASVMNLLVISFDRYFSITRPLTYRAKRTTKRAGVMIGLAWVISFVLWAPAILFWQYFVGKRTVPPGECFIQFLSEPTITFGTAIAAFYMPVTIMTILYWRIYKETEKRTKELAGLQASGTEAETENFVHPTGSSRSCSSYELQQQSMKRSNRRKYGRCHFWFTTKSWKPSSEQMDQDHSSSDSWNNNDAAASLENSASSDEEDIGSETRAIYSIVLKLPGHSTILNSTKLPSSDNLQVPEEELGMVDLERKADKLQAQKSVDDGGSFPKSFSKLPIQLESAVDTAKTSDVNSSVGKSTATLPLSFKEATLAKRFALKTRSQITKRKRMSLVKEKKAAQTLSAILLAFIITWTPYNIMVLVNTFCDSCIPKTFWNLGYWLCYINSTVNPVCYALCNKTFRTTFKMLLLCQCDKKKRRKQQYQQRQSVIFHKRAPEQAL

GPR39 = molecular target: T16, GPR39 (Homo sapiens, UniProt O43194); experiment: GPCR Profiler; assay type: cell-based
T16 construct: host or cells: Chem-1 cells expressing Gα15
T16 sequence (O43194 whole entry): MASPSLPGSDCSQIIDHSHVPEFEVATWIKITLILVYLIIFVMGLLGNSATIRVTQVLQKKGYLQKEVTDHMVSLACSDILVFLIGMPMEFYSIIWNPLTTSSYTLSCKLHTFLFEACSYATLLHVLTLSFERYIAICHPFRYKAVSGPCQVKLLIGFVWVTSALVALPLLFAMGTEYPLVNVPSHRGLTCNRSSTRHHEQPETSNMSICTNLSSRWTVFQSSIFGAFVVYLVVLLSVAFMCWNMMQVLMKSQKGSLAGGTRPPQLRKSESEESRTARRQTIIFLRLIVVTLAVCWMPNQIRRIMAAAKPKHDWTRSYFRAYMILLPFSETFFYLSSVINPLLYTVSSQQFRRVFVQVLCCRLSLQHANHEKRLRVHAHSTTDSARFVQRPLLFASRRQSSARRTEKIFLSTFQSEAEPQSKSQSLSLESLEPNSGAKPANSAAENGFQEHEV

ERK3 = molecular target: T17, ERK3 (Homo sapiens, UniProt Q16659); experiment: KinomeScan; assay type: binding; settings: read-out: % Control
T17 construct: purchased DiscoveRx (Fremont, CA)

KIT(V559D) = molecular target: T18, KIT(V559D) (Homo sapiens, UniProt P10721, V559D); experiment: KinomeScan; assay type: binding; settings: read-out: % Control
T18 construct: purchased DiscoveRx
T18 sequence (P10721 26-976 V559D): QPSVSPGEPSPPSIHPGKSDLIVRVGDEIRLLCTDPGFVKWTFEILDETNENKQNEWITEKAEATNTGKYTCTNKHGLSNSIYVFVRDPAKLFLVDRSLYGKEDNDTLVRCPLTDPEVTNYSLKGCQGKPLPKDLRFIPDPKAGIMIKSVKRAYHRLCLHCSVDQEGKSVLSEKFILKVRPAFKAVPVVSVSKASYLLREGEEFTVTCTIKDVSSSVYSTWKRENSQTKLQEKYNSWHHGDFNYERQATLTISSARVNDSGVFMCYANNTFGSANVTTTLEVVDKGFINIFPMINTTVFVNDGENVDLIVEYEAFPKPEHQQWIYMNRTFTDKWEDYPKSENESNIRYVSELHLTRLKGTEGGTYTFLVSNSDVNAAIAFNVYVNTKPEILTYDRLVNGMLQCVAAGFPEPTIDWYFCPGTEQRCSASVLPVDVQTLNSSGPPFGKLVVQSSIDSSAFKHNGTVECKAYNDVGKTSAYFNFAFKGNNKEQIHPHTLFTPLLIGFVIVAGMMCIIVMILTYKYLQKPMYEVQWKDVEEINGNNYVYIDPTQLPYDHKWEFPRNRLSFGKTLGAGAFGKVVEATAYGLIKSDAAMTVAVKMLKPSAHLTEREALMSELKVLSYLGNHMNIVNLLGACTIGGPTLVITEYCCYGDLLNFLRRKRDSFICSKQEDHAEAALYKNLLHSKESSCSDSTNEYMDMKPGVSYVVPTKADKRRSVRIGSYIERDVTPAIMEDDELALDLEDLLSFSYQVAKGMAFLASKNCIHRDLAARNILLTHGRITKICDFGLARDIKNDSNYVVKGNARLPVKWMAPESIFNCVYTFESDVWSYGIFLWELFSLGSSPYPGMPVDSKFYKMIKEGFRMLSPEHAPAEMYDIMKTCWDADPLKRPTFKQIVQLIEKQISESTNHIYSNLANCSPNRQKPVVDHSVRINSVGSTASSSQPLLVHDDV

SIK2 = molecular target: T19, SIK2 (Homo sapiens, UniProt Q9H0K1); experiment: KinomeScan; assay type: binding; settings: read-out: % Control
T19 construct: purchased DiscoveRx (Fremont, CA)

D5 = molecular target: T20, D5 (Homo sapiens, UniProt P21918); experiment: GPCR Profiler; assay type: cell-based
T20 construct: host or cells: Chem-1 cells expressing Gα15
T20 sequence (P21918 whole entry): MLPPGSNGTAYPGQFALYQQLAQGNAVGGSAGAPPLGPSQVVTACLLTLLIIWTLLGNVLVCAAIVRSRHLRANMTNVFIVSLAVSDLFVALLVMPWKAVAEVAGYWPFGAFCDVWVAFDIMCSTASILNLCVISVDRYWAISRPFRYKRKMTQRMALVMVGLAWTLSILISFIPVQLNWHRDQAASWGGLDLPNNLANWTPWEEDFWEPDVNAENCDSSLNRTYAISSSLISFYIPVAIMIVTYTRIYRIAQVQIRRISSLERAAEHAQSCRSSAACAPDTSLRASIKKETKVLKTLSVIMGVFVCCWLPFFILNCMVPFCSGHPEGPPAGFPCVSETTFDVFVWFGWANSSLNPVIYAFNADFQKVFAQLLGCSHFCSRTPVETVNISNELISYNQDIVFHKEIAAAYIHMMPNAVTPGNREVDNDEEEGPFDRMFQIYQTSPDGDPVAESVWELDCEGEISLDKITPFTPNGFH

[1] = molecular target: T21, ABL1(Y253F)-phosphorylated (Homo sapiens, UniProt P00519, Y253F); experiment: KinomeScan; assay type: binding; settings: read-out: % Control
T21 construct: purchased DiscoveRx

EPHA6 = molecular target: T22, EPHA6 (Homo sapiens, UniProt Q9UF33); experiment: KinomeScan; assay type: binding; settings: read-out: % Control
T22 construct: purchased DiscoveRx (Fremont, CA)

PIK3CA(M1043I) = molecular target: T23, PIK3CA(M1043I) (Homo sapiens, UniProt P42336, M1043I); experiment: KinomeScan; assay type: binding; settings: read-out: % Control
T23 construct: purchased DiscoveRx (Fremont, CA)

CXCR5 = molecular target: T24, CXCR5 (Homo sapiens, UniProt P32302); experiment: GPCR Profiler; assay type: cell-based
T24 construct: host or cells: Chem-1 cells with Gα15
T24 sequence (P32302 whole entry, species assumed): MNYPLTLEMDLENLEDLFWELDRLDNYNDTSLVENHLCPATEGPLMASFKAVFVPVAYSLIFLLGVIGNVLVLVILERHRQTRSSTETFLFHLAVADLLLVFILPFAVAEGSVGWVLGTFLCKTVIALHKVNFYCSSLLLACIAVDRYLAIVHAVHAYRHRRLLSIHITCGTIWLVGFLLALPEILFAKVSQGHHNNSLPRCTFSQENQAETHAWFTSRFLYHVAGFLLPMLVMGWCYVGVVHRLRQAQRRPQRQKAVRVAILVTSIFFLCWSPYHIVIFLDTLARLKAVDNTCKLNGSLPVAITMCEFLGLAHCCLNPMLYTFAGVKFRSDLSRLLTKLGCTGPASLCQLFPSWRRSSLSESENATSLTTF

CB2 = molecular target: T25, CB2 (Homo sapiens, UniProt P34972); experiment: GPCR Profiler; assay type: cell-based
T25 construct: host or cells: Chem-1 cells with promiscuous Gα15
T25 sequence (P34972 whole entry, species assumed): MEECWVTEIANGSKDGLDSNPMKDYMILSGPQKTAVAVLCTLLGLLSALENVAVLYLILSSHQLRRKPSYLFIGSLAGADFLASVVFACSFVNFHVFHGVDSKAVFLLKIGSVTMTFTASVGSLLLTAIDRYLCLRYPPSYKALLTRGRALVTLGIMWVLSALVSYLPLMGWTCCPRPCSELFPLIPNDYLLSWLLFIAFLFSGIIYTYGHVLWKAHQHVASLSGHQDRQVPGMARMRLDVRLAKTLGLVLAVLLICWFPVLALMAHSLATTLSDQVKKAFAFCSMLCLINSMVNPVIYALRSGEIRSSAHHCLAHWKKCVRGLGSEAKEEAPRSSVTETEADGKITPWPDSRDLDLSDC

PIK3CA(E545A) = molecular target: T26, PIK3CA(E545A) (Homo sapiens, UniProt P42336, E545A); experiment: KinomeScan; assay type: binding; settings: read-out: % Control
T26 construct: purchased DiscoveRx (Fremont, CA)

A549 = experiment: Liperfluo lipid peroxidation; assay type: cell-based, human; settings: OGM2 and ionizing radiation
Protocol: Where appropriate, ANOVA, or student's T-test were conducted in PRISM. Chi squared T(X) was used for Liperfluo analysis. A value T(X)>4 implies that the two distributions are different with a p<0.01 (99% confidence). For drug interaction and therapeutic interaction, the coefficient of drug interaction (CDI) was calculated as follows: CDI=AB/(A×B). According to the impact of each group, AB is the value of combined treatment and A or B is the value of the single agent group to control group.
Radiation, like OGM2, induces lipid peroxidation in addition to DNA damage. OGM was tested for its ability to sensitize lung and pancreatic cancers to radiation induced lipid peroxidation and ferroptosis. Cells were incubated at 37° C. in 5% CO2 in […] DMEM with DMSO, OGM2, or Erastin for 3 days. Then 2.5 μM Liperfluo in 3 ml fresh media was added and cells were incubated at 37° C. in 5% CO2 for 1 hour. Cells were then trypsinized, pelleted, and resuspended in cell sorting media (1% BSA and 1 mM EDTA in PBS pH 7.4). A BD LSR II was used to record Ten thousand events and the data processed with FlowJo v10.8. […] All treatments were highly significant with Chi-squared >4 indicating a p<0.01.

A2058 = experiment: Scratch assay; assay type: cell-based, human; settings: 20 hours, OGM2 5 uM
[2] = system: U87 glioblastoma spheroids; experiment: Matrigel matrix invasion of spheroids; assay type: cell-based
Excerpt: U87 glioblastoma spheroids were formed in low attachment round bottom plates for 3 days. Spheroids were then covered in Matrigel™, which was allowed to polymerize before treatment with acidified media with or without OGM2. Acidification increased the degree of matrix invasion which is attenuated by OGM2.

T2 sequence (P46094 whole entry, species assumed): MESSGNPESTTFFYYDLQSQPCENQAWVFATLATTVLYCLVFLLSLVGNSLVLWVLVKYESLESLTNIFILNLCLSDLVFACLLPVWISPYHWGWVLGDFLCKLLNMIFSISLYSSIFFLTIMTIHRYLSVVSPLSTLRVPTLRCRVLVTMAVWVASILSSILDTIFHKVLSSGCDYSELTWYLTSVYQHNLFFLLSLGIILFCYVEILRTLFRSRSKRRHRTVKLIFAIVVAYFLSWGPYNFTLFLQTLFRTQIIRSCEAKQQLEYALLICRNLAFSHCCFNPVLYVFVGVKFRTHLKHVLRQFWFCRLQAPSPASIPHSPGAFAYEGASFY

`CCc1ccc2c(c1)C1(NN=C(c3cccc4ccccc34)S1)C(=O)N2` (centres unmarked) [OGM1, 5-ethyl-5′-naphthalen-1-ylspiro[1H-indole-3,2′-3H-1,3,4-thiadiazole]-2-one] was tested, and the remaining binding at 10 µM (MST1) was 100%, the Antagonism (XCR1; 10 uM) was 1.8 and the Agonism (XCR1; 12.5 uM) was 0.1. For the same compound, the remaining binding at 10 µM (INSRR) was 100%, the remaining binding at 10 µM (HPK1) was 100% and the remaining binding at 10 µM (CDK3) was 81%. For the same compound, the remaining binding at 10 µM (PIK3CD) was 55%, the remaining binding at 10 µM (ERK1) was 100% and the remaining binding at 10 µM (ZAK) was 100%. The remaining binding at 10 µM (PIK3CA(H1047L)) was 100%, the remaining binding at 10 µM (FAK) was 88% and the remaining binding at 10 µM (ROCK2) was 73%. It also gave a remaining binding at 10 µM (EGFR(G719C)) of 100%, a remaining binding at 10 µM (PHKG1) of 91% and a remaining binding at 10 µM (MLCK) of 100%. For the same compound, the Antagonism (M3; 10 uM) was −1.9, the Agonism (M3; 12.5 uM) was 0.7 and the Antagonism (GPR39; 10 uM) was 5.4. The Agonism (GPR39; 12.5 uM) was 0, the remaining binding at 10 µM (ERK3) was 100% and the remaining binding at 10 µM (KIT(V559D)) was 71%. The remaining binding at 10 µM (SIK2) was 100%, the Antagonism (D5; 10 uM) was −17.8 and the Agonism (D5; 12.5 uM) was −1.8. It also gave a remaining binding at 10 µM [1] of 80%, a remaining binding at 10 µM (EPHA6) of 100% and a remaining binding at 10 µM (PIK3CA(M1043I)) of 59%. It also gave an Antagonism (CXCR5; 10 uM) of −2, an Agonism (CXCR5; 12.5 uM) of 0.9 and an Antagonism (CB2; 10 uM) of −13.8. The Agonism (CB2; 12.5 uM) was −2.4 and the remaining binding at 10 µM (PIK3CA(E545A)) was 81%.

`CCc1ccc2c(c1)C1(NN=C(c3ccccc3)S1)C(=O)N2` (centres unmarked) [OGM2] was tested, and the “CDI, lipid peroxidation” value (A549) was < 0.232, the migration (A2058) was “inhibited migration” and the acidification-increased matrix invasion [2] was “attenuated”.
